Laboratory results reported in US20240358693A1, “METHODS OF TREATING PAIN” (Aisa Pharma, Inc., priority 2023, published 2024).

Tested on: participants with SSc-RP
Experiment: Scleroderma Health Assessment Questionnaire (SHAQ): disability indices and visual analog scales
Type: in vivo, human
Details: for SHAQ Alternative Disability Index, Mean / SHAQ Alternative Disability Index, Median / SHAQ Standard Disability Index, Mean / SHAQ Standard Disability Index, Median / SHAQ Visual Analogue Scale - Breathing Problems, Mean / SHAQ Visual Analogue Scale - Breathing Problems, Median / SHAQ Visual Analogue Scale - Finger Ulcers, Mean / SHAQ Visual Analogue Scale - Finger Ulcers, Median / SHAQ Visual Analogue Scale - Intestinal Problems, Mean / SHAQ Visual Analogue Scale - Intestinal Problems, Median / SHAQ Visual Analogue Scale - Overall Disease Severity, Mean / SHAQ Visual Analogue Scale - Overall Disease Severity, Median / SHAQ Visual Analogue Scale - Pain, Mean / SHAQ Visual Analogue Scale - Pain, Median / SHAQ Visual Analogue Scale - Raynaud's, Mean / SHAQ Visual Analogue Scale - Raynaud's, Median: Baseline; for SHAQ Alternative Disability Index, Mean / SHAQ Alternative Disability Index, Median / SHAQ Standard Disability Index, Mean / SHAQ Standard Disability Index, Median: Patients with Diagnosis of SSc
In short: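 Participants with SSc-RP completed the SHAQ at screening and each in-clinic visit. Standard and alternative disability indices (eight categories, 0–3; standard adjusts for aids/assistance) plus Raynaud's VAS on interference over the past 7 days. Reported as absolute change from baseline to end of each dosing period.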

[1] = Any Cilnidipine (N = 14), Day 12, Modified ITT, SSc patients, Part A
[2] = Any Cilnidipine (N = 14), Day 12, Modified ITT, SSc patients, Part A, Subject 01-110 Day 12 score excluded
[3] = Any Cilnidipine (N = 17), Day 12, PP Population Part A, SSc patients
[4] = Any Cilnidipine (N = 17), PP Population Part A, SSc patients
[5] = Cilnidipine 10 mg (N = 4), PP Population Part A
[6] = Cilnidipine 20 mg (N = 4), PP Population Part A
[7] = Pooled Cilnidipine 10 mg and Cilnidipine 10 mg + Tadalafil 5 mg (N = 9), PP Population Part A
[8] = Pooled Cilnidipine 20 mg and Cilnidipine 20 mg + Tadalafil 5 mg (N = 8), PP Population Part A
[9] = Pooled Cilnidipine (N = 8), PP Population Part A
[10] = Cilnidipine 10 mg (N = 3), patients with diagnosis of SSc, sensitivity analysis, Modified ITT, Part A
[11] = Cilnidipine 10 mg (N = 4), Modified ITT, Part A
[12] = Cilnidipine 10 mg, Day 12, PP Population Part A, SSc patients

COCCOC(=O)C1=C(C)NC(C)=C(C(=O)OC/C=C/c2ccccc2)C1c1cccc([N+](=O)[O-])c1 (centres unmarked) [Cilnidipine, cilnidipine]
SHAQ VAS- Breathing problems Change (20 mg): −0.83
SHAQ VAS- Raynaud's Change (20 mg): −1.27
SHAQ VAS- overall disease severity Change (20 mg): −1.63
SHAQ VAS-Pain (20 mg): −1.1
SHAQ Alternative Disability Index: Change from Baseline, Mean [1]: −0.016
SHAQ Alternative Disability Index: Change from Baseline, Median [1]: −0.031
SHAQ Alternative Disability Index: In-Clinic Visit (Day 12), Mean [1]: 0.430
SHAQ Alternative Disability Index: In-Clinic Visit (Day 12), Median [1]: 0.250
SHAQ Alternative Disability Index: Percent Change from Baseline, Mean [1]: 17.01%
SHAQ Alternative Disability Index: Percent Change from Baseline, Median [1]: −11.11%
SHAQ Standard Disability Index: Change from Baseline, Mean [1]: −0.050
SHAQ Standard Disability Index: Change from Baseline, Median [1]: 0.000
SHAQ Standard Disability Index: In-Clinic Visit (Day 12), Mean [1]: 0.521
SHAQ Standard Disability Index: In-Clinic Visit (Day 12), Median [1]: 0.250
SHAQ Standard Disability Index: Percent Change from Baseline, Mean [1]: 2.96%
SHAQ Standard Disability Index: Percent Change from Baseline, Median [1]: 0.00%
SHAQ Visual Analogue Scale - Finger Ulcers: Change from Baseline, Mean [1]: −0.623
SHAQ Visual Analogue Scale - Finger Ulcers: Change from Baseline, Median [1]: −0.100
SHAQ Visual Analogue Scale - Finger Ulcers: In-Clinic Visit (Day 12), Mean [1]: 0.900
SHAQ Visual Analogue Scale - Finger Ulcers: In-Clinic Visit (Day 12), Median [1]: 0.200
SHAQ Visual Analogue Scale - Finger Ulcers: Percent Change from Baseline, Mean [1]: −33.91%
SHAQ Visual Analogue Scale - Finger Ulcers: Percent Change from Baseline, Median [1]: −36.11%
SHAQ Visual Analogue Scale - Intestinal Problems: Change from Baseline, Mean [1]: −0.404
SHAQ Visual Analogue Scale - Intestinal Problems: Change from Baseline, Median [1]: 0.000
SHAQ Visual Analogue Scale - Intestinal Problems: In-Clinic Visit (Day 12), Mean [1]: 1.225
SHAQ Visual Analogue Scale - Intestinal Problems: In-Clinic Visit (Day 12), Median [1]: 0.650
SHAQ Visual Analogue Scale - Intestinal Problems: Percent Change from Baseline, Mean [1]: 0.28%
SHAQ Visual Analogue Scale - Intestinal Problems: Percent Change from Baseline, Median [1]: −10.00%
SHAQ Visual Analogue Scale - Overall Disease Severity: Change from Baseline, Mean [1]: −0.904
SHAQ Visual Analogue Scale - Overall Disease Severity: Change from Baseline, Median [1]: −1.300
SHAQ Visual Analogue Scale - Overall Disease Severity: In-Clinic Visit (Day 12), Mean [1]: 2.146
SHAQ Visual Analogue Scale - Overall Disease Severity: In-Clinic Visit (Day 12), Median [1]: 1.300
SHAQ Visual Analogue Scale - Overall Disease Severity: Percent Change from Baseline, Mean [1]: −30.92%
SHAQ Visual Analogue Scale - Overall Disease Severity: Percent Change from Baseline, Median [1]: −41.67%
SHAQ Visual Analogue Scale - Pain: Change from Baseline, Mean [1]: −0.492
SHAQ Visual Analogue Scale - Pain: Change from Baseline, Median [1]: −0.500
SHAQ Visual Analogue Scale - Pain: In-Clinic Visit (Day 12), Mean [1]: 2.236
SHAQ Visual Analogue Scale - Pain: In-Clinic Visit (Day 12), Median [1]: 2.150
SHAQ Visual Analogue Scale - Pain: Percent Change from Baseline, Mean [1]: −23.84%
SHAQ Visual Analogue Scale - Pain: Percent Change from Baseline, Median [1]: −21.87%
SHAQ Visual Analogue Scale - Raynaud's: Change from Baseline, Mean [1]: −0.538
SHAQ Visual Analogue Scale - Raynaud's: Change from Baseline, Median [1]: −0.300
SHAQ Visual Analogue Scale - Raynaud's: In-Clinic Visit (Day 12), Mean [1]: 1.798
SHAQ Visual Analogue Scale - Raynaud's: In-Clinic Visit (Day 12), Median [1]: 1.250
SHAQ Visual Analogue Scale - Raynaud's: Percent Change from Baseline, Mean [1]: −18.26%
SHAQ Visual Analogue Scale - Raynaud's: Percent Change from Baseline, Median [1]: −33.33%
SHAQ Visual Analogue Scale - Breathing Problems: Change from Baseline, Mean [2]: −0.015
SHAQ Visual Analogue Scale - Breathing Problems: Change from Baseline, Median [2]: 0.000
SHAQ Visual Analogue Scale - Breathing Problems: In-Clinic Visit (Day 12), Mean [2]: 1.515
SHAQ Visual Analogue Scale - Breathing Problems: In-Clinic Visit (Day 12), Median [2]: 0.400
SHAQ Visual Analogue Scale - Breathing Problems: Percent Change from Baseline, Mean [2]: 51.98%
SHAQ Visual Analogue Scale - Breathing Problems: Percent Change from Baseline, Median [2]: −21.33%
SHAQ Standard Disability Index, Change from Baseline, Mean [3]: −0.041
SHAQ Standard Disability Index, Change from Baseline, Median [3]: 0.000
SHAQ Standard Disability Index, Percent Change from Baseline, Mean [3]: 3.27%
SHAQ Standard Disability Index, Percent Change from Baseline, Median [3]: 0.00%
SHAQ Standard Disability Index, In-Clinic Visit (Day 12), Mean [4]: 0.539
SHAQ Standard Disability Index, In-Clinic Visit (Day 12), Median [4]: 0.250
SHAQ Alternative Disability Index, Mean [5]: 0.500
SHAQ Alternative Disability Index, Median [5]: 0.438
SHAQ Standard Disability Index, Mean [5]: 0.656
SHAQ Standard Disability Index, Median [5]: 0.563
SHAQ Alternative Disability Index, Mean [6]: 0.219
SHAQ Alternative Disability Index, Median [6]: 0.250
SHAQ Standard Disability Index, Mean [6]: 0.344
SHAQ Standard Disability Index, Median [6]: 0.375
SHAQ Visual Analogue Scale - Breathing Problems, Mean [7]: 1.511
SHAQ Visual Analogue Scale - Breathing Problems, Median [7]: 0.800
SHAQ Visual Analogue Scale - Finger Ulcers, Mean [7]: 0.656
SHAQ Visual Analogue Scale - Finger Ulcers, Median [7]: 0.200
SHAQ Visual Analogue Scale - Intestinal Problems, Mean [7]: 2.444
SHAQ Visual Analogue Scale - Intestinal Problems, Median [7]: 1.100
SHAQ Visual Analogue Scale - Overall Disease Severity, Mean [7]: 3.044
SHAQ Visual Analogue Scale - Overall Disease Severity, Median [7]: 1.900
SHAQ Visual Analogue Scale - Pain, Mean [7]: 3.278
SHAQ Visual Analogue Scale - Pain, Median [7]: 3.100
SHAQ Visual Analogue Scale - Raynaud's, Mean [7]: 2.733
SHAQ Visual Analogue Scale - Raynaud's, Median [7]: 1.400
SHAQ Visual Analogue Scale - Breathing Problems, Mean [8]: 1.175
SHAQ Visual Analogue Scale - Breathing Problems, Median [8]: 1.000
SHAQ Visual Analogue Scale - Finger Ulcers, Mean [8]: 1.986
SHAQ Visual Analogue Scale - Finger Ulcers, Median [8]: 0.100
SHAQ Visual Analogue Scale - Intestinal Problems, Mean [8]: 0.813
SHAQ Visual Analogue Scale - Intestinal Problems, Median [8]: 0.650
SHAQ Visual Analogue Scale - Overall Disease Severity, Mean [8]: 3.363
SHAQ Visual Analogue Scale - Overall Disease Severity, Median [8]: 2.950
SHAQ Visual Analogue Scale - Pain, Mean [8]: 2.800
SHAQ Visual Analogue Scale - Pain, Median [8]: 2.900
SHAQ Visual Analogue Scale - Raynaud's, Mean [8]: 2.700
SHAQ Visual Analogue Scale - Raynaud's, Median [8]: 1.700
SHAQ Visual Analogue Scale - Breathing Problems, Mean [9]: 1.600
SHAQ Visual Analogue Scale - Breathing Problems, Median [9]: 0.700
SHAQ Visual Analogue Scale - Finger Ulcers, Mean [9]: 1.171
SHAQ Visual Analogue Scale - Finger Ulcers, Median [9]: 0.300
SHAQ Visual Analogue Scale - Intestinal Problems, Mean [9]: 1.838
SHAQ Visual Analogue Scale - Intestinal Problems, Median [9]: 0.650
SHAQ Visual Analogue Scale - Overall Disease Severity, Mean [9]: 2.925
SHAQ Visual Analogue Scale - Overall Disease Severity, Median [9]: 2.950
SHAQ Visual Analogue Scale - Pain, Mean [9]: 2.250
SHAQ Visual Analogue Scale - Pain, Median [9]: 2.150
SHAQ Visual Analogue Scale - Raynaud's, Mean [9]: 2.338
SHAQ Visual Analogue Scale - Raynaud's, Median [9]: 1.800
SHAQ Standard Disability Index: Baseline, Mean [10]: 0.875
SHAQ Standard Disability Index: Baseline, Median [10]: 1.125
SHAQ Standard Disability Index: Change from Baseline, Mean [10]: 0.000
SHAQ Standard Disability Index: Change from Baseline, Median [10]: 0.000
SHAQ Standard Disability Index: Day 12, Mean [10]: 0.875
SHAQ Standard Disability Index: Day 12, Median [10]: 1.125
SHAQ Standard Disability Index: Percent Change from Baseline, Mean [10]: 0.00%
SHAQ Standard Disability Index: Percent Change from Baseline, Median [10]: 0.00%
SHAQ Overall Severity: Baseline, Mean [11]: 2.725
SHAQ Overall Severity: Baseline, Median [11]: 1.900
SHAQ Overall Severity: Change from Baseline, Mean [11]: −0.900
SHAQ Overall Severity: Change from Baseline, Median [11]: −0.950
SHAQ Overall Severity: Day 12, Mean [11]: 1.825
SHAQ Overall Severity: Day 12, Median [11]: 1.050
SHAQ Overall Severity: Percent Change from Baseline, Mean [11]: −56.96%
SHAQ Overall Severity: Percent Change from Baseline, Median [11]: −44.12%
SHAQ Visual Analogue Scale - Breathing Problems, Change from Baseline, Mean [12]: −0.300
SHAQ Visual Analogue Scale - Breathing Problems, Change from Baseline, Median [12]: 0.000
SHAQ Visual Analogue Scale - Breathing Problems, Percent Change from Baseline, Mean [12]: −16.00%
SHAQ Visual Analogue Scale - Breathing Problems, Percent Change from Baseline, Median [12]: −16.00%
